Usually IC50 stands for the point on the concentration scale where inhibition reaches its midpoint.

*1 amine or outer side, *2 acyl side, *3 side chain or, on linkers, in order; H or OH if unused. Where a SMILES comes first, the peptide text is derived from it. Bridges are numbered along the chain shown (N, C = ends). [ ]: non-standard residue; d: D form. ξ: configuration not given here. X3 = CC(=O)N(C)C(Cc1ccc(O)cc1)C(=O)OC(CC(O)C(O)CC(C)C)CC(N[*:2])C(O)C(=O)[*:1]; X2 = COc1ccc(CCC(N[*:1])C(=O)[*:2])cc1; d(aIle) = CC[C@H](C)[C@@H](N)C(=O)O; hTyr = N[C@@H](CCc1ccc(O)cc1)C(=O)O; hPhe = N[C@@H](CCc1ccccc1)C(=O)O; X1 = C/C=C(/N[*:1])C(=O)[*:2]; ξhPhe = NC(CCc1ccccc1)C(=O)O; NMeA = CN[C@@H](C)C(=O)O; CO = O=C([*:1])[*:2]

The test deals with 20S proteasome, human (Homo sapiens, UniProt P28074). Kind of test: 20S proteasome assay. In kind it is biochemical. The conditions noted are these: chymotrypsin-like activity; for 20S proteasome inhibitory activity: at 50 μM; for IC50: read-out: 20S proteasome inhibition IC50.

Take `CC[C@H](C)[C@@H]1NC(=O)[C@H](NC(=O)N[C@H](Cc2ccccc2)C(=O)O)CCCCNC(=O)[C@H](CCc2ccccc2)NC(=O)[C@H](C)N(C)C(=O)[C@H](CCc2ccc(O)cc2)NC1=O` [compound 1, Lyngbyaureidamide A] ({dF-CO}-[dK]I[hTyr][NMeA][hPhe]; lactam 1-C): the “20S proteasome inhibitory activity” value is “not active”.
Consider `C/C=C1/NC(=O)[C@H](CO)NC(=O)[C@@H]([C@@H](C)CC)NC(=O)[C@@H]2CCCN2C(=O)[C@@H]2CCCN2C(=O)CNC(=O)[C@H](CCC(N)=O)NC(=O)C(O)C(CC(CC(O)C(O)CC(C)C)OC(=O)C(Cc2ccc(O)cc2)N(C)C(C)=O)NC(=O)[C@@H]2CCCN2C(=O)C(CCc2ccccc2)NC(=O)[C@H]([C@@H](C)O)NC1=O` (stereo partly shown) [compound 4, Lyngbyazothrin D] (QGPP[d(aIle)]S[X1]T[ξhPhe]P; linker N-C via X3), for which the IC50 was 19.2 µM.
In the case of `CC[C@H](C)[C@@H]1NC(=O)[C@H](NC(=O)N[C@H](Cc2ccccc2)C(=O)O)CCCCNC(=O)[C@H](Cc2ccccc2)NC(=O)[C@H](C)N(C)C(=O)[C@H](CCc2ccc(O)cc2)NC1=O` [compound 2, Lyngbyaureidamide B] ({dF-CO}-[dK]I[hTyr][NMeA]F; lactam 1-C), the “20S proteasome inhibitory activity” value was “not active”.
In the case of `C/C=C1/NC(=O)[C@H](CO)NC(=O)[C@@H]([C@@H](C)CC)NC(=O)[C@@H]2CCCN2C(=O)[C@@H]2CCCN2C(=O)CNC(=O)[C@H](CCC(N)=O)NC(=O)C(O)C(CC(CC(O)C(O)CC(C)C)OC(=O)C(Cc2ccc(O)cc2)N(C)C(C)=O)NC(=O)[C@@H]2CCCN2C(=O)C(CCc2ccc(OC)cc2)NC(=O)[C@H]([C@@H](C)O)NC1=O` (stereo partly shown) [compound 3, Lyngbyazothrin C] (QGPP[d(aIle)]S[X1]T[X2]P; linker N-C via X3), the IC50 came to 7.1 µM.

Source of the values: article PMC3262893 (Phytochemistry, 2011).
